Measurements: ChEMBL document CHEMBL1926681, “Novel inhibitors of epidermal growth factor receptor: (4-(Arylamino)-7H-pyrrolo[2,3-d]pyrimidin-6-yl)(1H-indol-2-yl)methanones and (1H-indol-2-yl)(4-(phenylamino)thieno[2,3-d]pyrimidin-6-yl)methanones” (Bioorg Med Chem, 2012)
Active and inactive are the calls of the source. No cut-off for these calls is given here.

What was measured:
[1] = molecular target: T1, Epidermal growth factor receptor (Homo sapiens, UniProt P00533); experiment: Inhibition of EGFR using poly(Glu,Tyr)4:1 as substrate and [gamma33P]ATP at 1 uM after 60 mins by scintillation counting
T1 sequence (P00533 whole entry): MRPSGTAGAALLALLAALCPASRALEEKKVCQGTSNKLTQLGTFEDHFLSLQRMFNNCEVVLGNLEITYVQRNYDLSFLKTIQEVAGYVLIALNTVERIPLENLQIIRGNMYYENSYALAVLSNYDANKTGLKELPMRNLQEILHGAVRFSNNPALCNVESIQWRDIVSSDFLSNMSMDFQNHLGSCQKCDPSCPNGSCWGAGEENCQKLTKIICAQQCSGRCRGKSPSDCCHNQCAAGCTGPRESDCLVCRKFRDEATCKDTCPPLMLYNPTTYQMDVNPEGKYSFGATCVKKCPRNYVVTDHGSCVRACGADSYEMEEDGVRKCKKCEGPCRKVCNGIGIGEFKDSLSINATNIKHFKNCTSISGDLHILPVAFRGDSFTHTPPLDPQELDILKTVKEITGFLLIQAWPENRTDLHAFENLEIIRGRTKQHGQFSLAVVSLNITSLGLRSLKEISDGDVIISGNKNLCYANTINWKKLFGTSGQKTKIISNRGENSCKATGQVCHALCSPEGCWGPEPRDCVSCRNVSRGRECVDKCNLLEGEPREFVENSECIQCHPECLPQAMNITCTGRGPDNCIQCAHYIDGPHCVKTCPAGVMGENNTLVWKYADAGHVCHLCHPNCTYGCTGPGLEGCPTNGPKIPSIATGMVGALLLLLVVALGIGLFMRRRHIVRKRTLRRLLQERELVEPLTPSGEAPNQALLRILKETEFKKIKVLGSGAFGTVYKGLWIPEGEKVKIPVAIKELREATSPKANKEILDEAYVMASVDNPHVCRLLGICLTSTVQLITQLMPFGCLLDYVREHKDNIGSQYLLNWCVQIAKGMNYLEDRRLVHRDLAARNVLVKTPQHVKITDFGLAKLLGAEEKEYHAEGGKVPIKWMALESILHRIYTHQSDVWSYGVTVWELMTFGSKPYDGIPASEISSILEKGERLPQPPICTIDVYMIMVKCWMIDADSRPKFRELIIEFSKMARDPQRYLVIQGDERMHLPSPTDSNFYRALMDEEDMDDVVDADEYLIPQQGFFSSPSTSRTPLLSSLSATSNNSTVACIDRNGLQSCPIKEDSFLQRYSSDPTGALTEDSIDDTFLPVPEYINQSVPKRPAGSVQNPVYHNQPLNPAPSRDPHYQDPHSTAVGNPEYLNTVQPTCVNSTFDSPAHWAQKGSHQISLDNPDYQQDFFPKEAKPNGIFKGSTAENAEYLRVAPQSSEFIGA

[2] = molecular target: T1, Epidermal growth factor receptor; experiment: Inhibition of EGFR using poly(Glu,Tyr)4:1 as substrate and [gamma33P]ATP after 60 mins by scintillation counting
[3] = molecular target: Receptor tyrosine-protein kinase erbB-2 (Homo sapiens) (UniProt P04626); experiment: Inhibition of Erbb2 using poly(Glu,Tyr)4:1 as substrate and [gamma33P]ATP at 1 uM after 60 mins by scintillation counting
[4] = molecular target: Vascular endothelial growth factor receptor 2 (Homo sapiens) (UniProt P35968); experiment: Inhibition of VEGFR2 using poly(Glu,Tyr)4:1 as substrate and [gamma33P]ATP at 1 uM after 60 mins by scintillation counting
Chain of Vascular endothelial growth factor receptor 2 (Homo sapiens) (P35968 whole entry): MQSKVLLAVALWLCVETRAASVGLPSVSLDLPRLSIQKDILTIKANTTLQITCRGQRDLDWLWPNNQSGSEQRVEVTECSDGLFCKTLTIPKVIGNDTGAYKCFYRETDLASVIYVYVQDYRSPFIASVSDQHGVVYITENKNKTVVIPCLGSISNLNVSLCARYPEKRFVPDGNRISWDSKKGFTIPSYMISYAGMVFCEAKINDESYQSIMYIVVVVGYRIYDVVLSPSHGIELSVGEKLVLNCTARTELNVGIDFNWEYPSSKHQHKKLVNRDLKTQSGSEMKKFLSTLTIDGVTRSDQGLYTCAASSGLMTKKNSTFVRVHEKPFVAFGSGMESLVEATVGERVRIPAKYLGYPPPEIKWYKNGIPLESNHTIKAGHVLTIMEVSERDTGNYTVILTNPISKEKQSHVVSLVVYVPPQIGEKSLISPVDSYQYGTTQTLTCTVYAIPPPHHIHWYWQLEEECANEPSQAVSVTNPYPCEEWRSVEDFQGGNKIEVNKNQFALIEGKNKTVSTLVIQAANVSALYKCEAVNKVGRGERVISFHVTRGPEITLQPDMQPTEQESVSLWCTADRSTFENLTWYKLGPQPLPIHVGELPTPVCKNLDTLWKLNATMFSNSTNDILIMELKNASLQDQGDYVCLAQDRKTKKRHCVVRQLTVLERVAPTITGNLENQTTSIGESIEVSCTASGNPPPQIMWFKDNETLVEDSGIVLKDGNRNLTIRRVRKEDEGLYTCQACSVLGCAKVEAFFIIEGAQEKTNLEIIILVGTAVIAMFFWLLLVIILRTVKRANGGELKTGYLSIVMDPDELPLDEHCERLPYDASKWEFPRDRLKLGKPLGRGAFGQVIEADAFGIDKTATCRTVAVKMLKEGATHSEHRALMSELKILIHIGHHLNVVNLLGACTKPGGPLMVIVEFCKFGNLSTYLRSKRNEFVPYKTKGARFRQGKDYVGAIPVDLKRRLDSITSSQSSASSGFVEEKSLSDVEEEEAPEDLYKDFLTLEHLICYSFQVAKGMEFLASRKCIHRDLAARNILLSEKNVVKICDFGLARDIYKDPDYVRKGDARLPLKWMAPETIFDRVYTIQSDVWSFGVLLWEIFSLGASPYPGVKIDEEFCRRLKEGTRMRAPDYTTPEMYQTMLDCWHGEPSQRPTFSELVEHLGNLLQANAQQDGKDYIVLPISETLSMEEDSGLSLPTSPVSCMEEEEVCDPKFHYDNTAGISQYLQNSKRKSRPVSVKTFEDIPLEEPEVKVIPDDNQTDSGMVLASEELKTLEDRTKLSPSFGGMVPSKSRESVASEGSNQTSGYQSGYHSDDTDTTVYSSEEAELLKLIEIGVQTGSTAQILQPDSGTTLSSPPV

[5] = molecular target: Tyrosine-protein kinase ABL1 (Homo sapiens) (UniProt P00519); experiment: Inhibition of ABL1 using poly(Ala, Glu, Lys, Tyr) as substrate and [gamma33P]ATP at 1 uM after 60 mins by scintillation counting
Chain of Tyrosine-protein kinase ABL1 (Homo sapiens) (P00519 whole entry): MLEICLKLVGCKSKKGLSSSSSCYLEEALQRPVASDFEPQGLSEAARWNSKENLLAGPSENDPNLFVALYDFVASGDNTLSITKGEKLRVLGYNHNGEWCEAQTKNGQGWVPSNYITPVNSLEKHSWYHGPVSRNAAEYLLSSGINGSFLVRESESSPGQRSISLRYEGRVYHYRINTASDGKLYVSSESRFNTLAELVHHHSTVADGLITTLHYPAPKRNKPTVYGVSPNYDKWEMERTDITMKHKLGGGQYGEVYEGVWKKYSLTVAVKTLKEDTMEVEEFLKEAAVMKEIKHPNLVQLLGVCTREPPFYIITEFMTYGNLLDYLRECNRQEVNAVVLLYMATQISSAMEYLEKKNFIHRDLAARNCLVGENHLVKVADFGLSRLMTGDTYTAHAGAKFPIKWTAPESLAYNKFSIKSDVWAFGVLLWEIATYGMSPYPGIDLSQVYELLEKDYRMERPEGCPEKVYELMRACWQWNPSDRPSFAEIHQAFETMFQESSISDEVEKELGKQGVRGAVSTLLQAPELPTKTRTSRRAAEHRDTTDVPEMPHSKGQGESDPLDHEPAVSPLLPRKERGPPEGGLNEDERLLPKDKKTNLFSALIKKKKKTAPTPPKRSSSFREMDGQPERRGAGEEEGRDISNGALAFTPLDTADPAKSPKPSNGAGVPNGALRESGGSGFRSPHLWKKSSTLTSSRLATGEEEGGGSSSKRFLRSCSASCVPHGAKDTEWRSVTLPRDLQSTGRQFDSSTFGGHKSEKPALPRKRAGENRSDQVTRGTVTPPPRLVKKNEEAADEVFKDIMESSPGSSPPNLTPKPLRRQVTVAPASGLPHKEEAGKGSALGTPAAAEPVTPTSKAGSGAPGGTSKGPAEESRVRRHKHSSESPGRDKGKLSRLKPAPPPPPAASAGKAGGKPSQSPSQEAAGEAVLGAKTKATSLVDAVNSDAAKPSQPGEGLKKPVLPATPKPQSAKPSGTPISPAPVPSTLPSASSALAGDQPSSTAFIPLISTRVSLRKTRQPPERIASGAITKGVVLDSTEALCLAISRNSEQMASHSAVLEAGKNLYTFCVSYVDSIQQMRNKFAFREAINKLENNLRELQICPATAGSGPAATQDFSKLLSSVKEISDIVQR

[6] = molecular target: Hepatocyte growth factor receptor (Homo sapiens) (UniProt P08581); experiment: Inhibition of MET using poly(Ala, Glu, Lys, Tyr) as substrate and [gamma33P]ATP at 1 uM after 60 mins by scintillation counting
Chain of Hepatocyte growth factor receptor (Homo sapiens) (P08581 whole entry): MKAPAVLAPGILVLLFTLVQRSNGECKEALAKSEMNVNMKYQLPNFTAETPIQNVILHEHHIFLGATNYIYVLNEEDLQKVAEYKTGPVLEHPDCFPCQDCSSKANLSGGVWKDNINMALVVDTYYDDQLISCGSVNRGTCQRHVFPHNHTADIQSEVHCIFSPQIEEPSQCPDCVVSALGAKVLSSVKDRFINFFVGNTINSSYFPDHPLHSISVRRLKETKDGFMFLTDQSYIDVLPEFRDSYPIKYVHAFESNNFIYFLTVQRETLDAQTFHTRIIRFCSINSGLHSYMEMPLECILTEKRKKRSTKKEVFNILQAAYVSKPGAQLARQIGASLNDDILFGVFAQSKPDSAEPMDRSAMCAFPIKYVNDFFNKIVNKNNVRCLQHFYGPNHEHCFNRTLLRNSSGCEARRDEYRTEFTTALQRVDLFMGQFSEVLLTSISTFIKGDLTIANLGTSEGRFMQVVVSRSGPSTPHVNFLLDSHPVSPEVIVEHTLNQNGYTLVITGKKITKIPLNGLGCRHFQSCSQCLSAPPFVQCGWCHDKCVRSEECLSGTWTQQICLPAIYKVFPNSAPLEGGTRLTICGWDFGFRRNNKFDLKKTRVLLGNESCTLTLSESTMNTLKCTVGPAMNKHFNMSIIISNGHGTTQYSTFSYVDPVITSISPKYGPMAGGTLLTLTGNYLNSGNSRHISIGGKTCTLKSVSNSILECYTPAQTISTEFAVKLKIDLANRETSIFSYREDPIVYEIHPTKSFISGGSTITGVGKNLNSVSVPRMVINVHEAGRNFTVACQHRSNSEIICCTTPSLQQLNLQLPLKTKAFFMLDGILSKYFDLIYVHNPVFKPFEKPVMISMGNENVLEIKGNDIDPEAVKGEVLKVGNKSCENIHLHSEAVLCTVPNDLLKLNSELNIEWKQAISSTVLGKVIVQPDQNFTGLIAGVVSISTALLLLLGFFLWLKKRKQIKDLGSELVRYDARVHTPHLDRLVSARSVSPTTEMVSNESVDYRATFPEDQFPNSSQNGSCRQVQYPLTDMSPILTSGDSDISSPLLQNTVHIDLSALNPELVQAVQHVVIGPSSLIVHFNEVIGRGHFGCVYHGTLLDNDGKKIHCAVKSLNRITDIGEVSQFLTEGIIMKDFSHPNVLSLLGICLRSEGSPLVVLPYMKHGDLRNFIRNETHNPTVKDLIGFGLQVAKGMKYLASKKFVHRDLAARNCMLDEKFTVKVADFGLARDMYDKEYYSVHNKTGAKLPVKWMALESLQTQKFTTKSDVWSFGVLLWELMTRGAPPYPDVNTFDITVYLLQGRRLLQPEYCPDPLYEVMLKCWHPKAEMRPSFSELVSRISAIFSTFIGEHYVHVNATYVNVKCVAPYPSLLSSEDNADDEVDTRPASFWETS

[7] = molecular target: T1, Epidermal growth factor receptor; experiment: Inhibition of EGFR autophosphorylation in EGF-stimulated human A431 cells after 1 hr by immunoblotting; assay type: cell-based, A-431
[8] = Cytotoxicity against human BXF 1218L cells after 4 days by propidium iodide staining-based fluorometric analysis; assay type: functional, cell-based; details: 96 h
[9] = Cytotoxicity against human BXF 1352L cells after 4 days by propidium iodide staining-based fluorometric analysis; assay type: functional, cell-based; details: 96 h
[10] = Cytotoxicity against human BXF T24 cells after 4 days by propidium iodide staining-based fluorometric analysis; assay type: functional, cell-based; details: T-24, 96 h
[11] = Cytotoxicity against human CXF 269L cells after 4 days by propidium iodide staining-based fluorometric analysis; assay type: functional, cell-based; details: 96 h
[12] = Cytotoxicity against human DIFI cells after 4 days by propidium iodide staining-based fluorometric analysis; assay type: functional, cell-based; details: 96 h
[13] = tested on: HCT-116; experiment: Cytotoxicity against human HCT116 cells after 4 days by propidium iodide staining-based fluorometric analysis; assay type: functional, cell-based; details: HCT-116, 96 h
[14] = tested on: HT-29; experiment: Cytotoxicity against human HT-29 cells after 4 days by propidium iodide staining-based fluorometric analysis; assay type: functional, cell-based; details: HT-29, 96 h
[15] = tested on: RKO; experiment: Cytotoxicity against human RKO cells after 4 days by propidium iodide staining-based fluorometric analysis; assay type: functional, cell-based; details: 96 h
[16] = Cytotoxicity against human GXF251L cells after 4 days by propidium iodide staining-based fluorometric analysis; assay type: functional, cell-based; details: GXF 251L, 96 h
[17] = tested on: MKN-45; experiment: Cytotoxicity against human MKN45 cells after 4 days by propidium iodide staining-based fluorometric analysis; assay type: functional, cell-based; details: MKN-45, 96 h
[18] = tested on: CAL-27; experiment: Cytotoxicity against human CAL27 cells after 4 days by propidium iodide staining-based fluorometric analysis; assay type: functional, cell-based; details: CAL-27, 96 h
[19] = Cytotoxicity against human LIXF 575L cells after 4 days by propidium iodide staining-based fluorometric analysis; assay type: functional, cell-based; details: 96 h
[20] = tested on: NCI-H460; experiment: Cytotoxicity against human H460 cells after 4 days by propidium iodide staining-based fluorometric analysis; assay type: functional, cell-based; details: NCI-H460, 96 h
[21] = Cytotoxicity against human LXFA 289L cells after 4 days by propidium iodide staining-based fluorometric analysis; assay type: functional, cell-based; details: 96 h
[22] = Cytotoxicity against human LXFA 526L cells after 4 days by propidium iodide staining-based fluorometric analysis; assay type: functional, cell-based; details: 96 h
[23] = Cytotoxicity against human LXFA 629L cells after 4 days by propidium iodide staining-based fluorometric analysis; assay type: functional, cell-based; details: 96 h
[24] = Cytotoxicity against human LXFL 1121L cells after 4 days by propidium iodide staining-based fluorometric analysis; assay type: functional, cell-based; details: 96 h
[25] = Cytotoxicity against human LXFL 529L cells after 4 days by propidium iodide staining-based fluorometric analysis; assay type: functional, cell-based; details: 96 h
[26] = Cytotoxicity against human MAXF 401NL cells after 4 days by propidium iodide staining-based fluorometric analysis; assay type: functional, cell-based; details: 96 h
[27] = tested on: MCF7; experiment: Cytotoxicity against human MCF7 cells after 4 days by propidium iodide staining-based fluorometric analysis; assay type: functional, cell-based; details: MCF7, 96 h
[28] = Cytotoxicity against human MDA231 cells after 4 days by propidium iodide staining-based fluorometric analysis; assay type: functional, cell-based; details: MDA-MB-231, 96 h
[29] = Cytotoxicity against human MEXF 1341L cells after 4 days by propidium iodide staining-based fluorometric analysis; assay type: functional, cell-based; details: 96 h
[30] = Cytotoxicity against human MEXF 276L cells after 4 days by propidium iodide staining-based fluorometric analysis; assay type: functional, cell-based; details: MEXF276L, 96 h
[31] = Cytotoxicity against human MEXF 462NL cells after 4 days by propidium iodide staining-based fluorometric analysis; assay type: functional, cell-based; details: 96 h
[32] = Cytotoxicity against human OVXF 899L cells after 4 days by propidium iodide staining-based fluorometric analysis; assay type: functional, cell-based; details: 96 h
[33] = tested on: OVCAR-3; experiment: Cytotoxicity against human OVCAR3 cells after 4 days by propidium iodide staining-based fluorometric analysis; assay type: functional, cell-based; details: OVCAR-3, 96 h
[34] = Cytotoxicity against human PAXF 1657L cells after 4 days by propidium iodide staining-based fluorometric analysis; assay type: functional, cell-based; details: 96 h
[35] = Cytotoxicity against human PAXF 546L cells after 4 days by propidium iodide staining-based fluorometric analysis; assay type: functional, cell-based; details: 96 h
[36] = tested on: PANC-1; experiment: Cytotoxicity against human PANC1 cells after 4 days by propidium iodide staining-based fluorometric analysis; assay type: functional, cell-based; details: PANC-1, 96 h
[37] = tested on: CWR22R; experiment: Cytotoxicity against human 22Rv1 cells after 4 days by propidium iodide staining-based fluorometric analysis; assay type: functional, cell-based; details: 22Rv1, 96 h
[38] = tested on: DU-145; experiment: Cytotoxicity against human DU145 cells after 4 days by propidium iodide staining-based fluorometric analysis; assay type: functional, cell-based; details: DU-145, 96 h
[39] = tested on: LNCaP; experiment: Cytotoxicity against human LNCAP cells after 4 days by propidium iodide staining-based fluorometric analysis; assay type: functional, cell-based; details: 96 h
[40] = Cytotoxicity against human PC3M cells after 4 days by propidium iodide staining-based fluorometric analysis; assay type: functional, cell-based; details: PC-3M, 96 h
[41] = Cytotoxicity against human PXF 1118L cells after 4 days by propidium iodide staining-based fluorometric analysis; assay type: functional, cell-based; details: 96 h
[42] = Cytotoxicity against human PXF 1752L cells after 4 days by propidium iodide staining-based fluorometric analysis; assay type: functional, cell-based; details: 96 h
[43] = Cytotoxicity against human PXF 698L cells after 4 days by propidium iodide staining-based fluorometric analysis; assay type: functional, cell-based; details: 96 h
[44] = Cytotoxicity against human RXF 1781L cells after 4 days by propidium iodide staining-based fluorometric analysis; assay type: functional, cell-based; details: 96 h
[45] = Cytotoxicity against human RXF 393NL cells after 4 days by propidium iodide staining-based fluorometric analysis; assay type: functional, cell-based; details: 96 h
[46] = Cytotoxicity against human RXF 486L cells after 4 days by propidium iodide staining-based fluorometric analysis; assay type: functional, cell-based; details: 96 h
[47] = tested on: SAOS-2; experiment: Cytotoxicity against human Saos2 cells after 4 days by propidium iodide staining-based fluorometric analysis; assay type: functional, cell-based; details: SAOS-2, 96 h, read-out: IC50
[48] = tested on: TE-671; experiment: Cytotoxicity against human TE671 cells after 4 days by propidium iodide staining-based fluorometric analysis; assay type: functional, cell-based; details: TE-671, 96 h
[49] = Cytotoxicity against human UXF 1138L cells after 4 days by propidium iodide staining-based fluorometric analysis; assay type: functional, cell-based; details: 96 h

inhibition [1]: 99% | IC50 [2]: 0.0166 µM | inhibition [3]: 73% | inhibition [4]: 20% | inhibition [5]: inactive | inhibition [6]: inactive | IC50 [7]: 0.3 µM
Structure (SMILES): O=C(c1cc2ccccc2[nH]1)c1cc2c(Nc3cccc(Cl)c3)ncnc2s1
IC50 [8]: 21.5 µM | IC50 [9]: 15.9 µM | IC50 [10]: 23.7 µM | IC50 [11]: 28.9 µM | IC50 [12]: 1.8 µM | IC50 [13]: 18.9 µM | IC50 [14]: 17.7 µM | IC50 [15]: 18.1 µM | IC50 [16]: 4.3 µM | IC50 [17]: 20.2 µM | IC50 [18]: 3 µM | IC50 [19]: 18.1 µM | IC50 [20]: 17.7 µM | IC50 [21]: 4.7 µM | IC50 [22]: 13.6 µM | IC50 [23]: 6 µM | IC50 [24]: 16 µM | IC50 [25]: 7.6 µM | IC50 [26]: 7.3 µM | IC50 [27]: 12.5 µM | IC50 [28]: 23.4 µM | IC50 [29]: 20.1 µM | IC50 [30]: 27.1 µM | IC50 [31]: 24 µM | IC50 [32]: 13.9 µM | IC50 [33]: 15.3 µM | IC50 [34]: 47.6 µM | IC50 [35]: 25.1 µM | IC50 [36]: 14.8 µM | IC50 [37]: 14 µM | IC50 [38]: 9.2 µM | IC50 [39]: 11.3 µM | IC50 [40]: 14.1 µM | IC50 [41]: 49.7 µM | IC50 [42]: 30.7 µM | IC50 [43]: 31 µM | IC50 [44]: 20 µM | IC50 [45]: 26.4 µM | IC50 [46]: 13.1 µM | IC50 [47]: 19.3 µM | IC50 [48]: 24.8 µM | IC50 [49]: 8.6 µM
